Experimental data from US20230265116A1, “DEGRADATION OF (EGFR) BY CONJUGATION OF EGFR INHIBITORS WITH E3 LIGASE LIGAND AND METHODS OF USE” (BEIGENE, LTD., priority 2020, published 2023).
Where two headings read alike, the source gives them in different places.

Legend:
[1] = system: EGFR Del19/T790M/C797S (BaF3-DTC cells); assay: EGFR degradation HTRF assay, BaF3-DTC cells; assay type: cell-based; details: for DTC Dmax (%): maximum percentage of degradation
Summary of the method: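 BaF3 (WT, Del19/T790M/C797S) and HCC827 cells exposed 16 h at 37 °C, 5% CO2 to compounds in 0.2% DMSO medium, 8 doses from 10 uM top, 5-fold steps. Lysates read by HTRF (665/620 nm); degradation % vs DMSO control, DC50 from four-parameter fit, Dmax as maximal degradation.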

[2] = biological target: T1, EGFR L858R/T790M/C797S (BaF3-LTC cells) (Homo sapiens, UniProt P00533, C797S/L858R/T790M); assay: EGFR degradation HTRF assay, BaF3-LTC cells; assay type: cell-based; details: BaF3-LTC, 16h treatment; for Dmax: maximum percentage of degradation, read-out: LTC Dmax (%); for DC50: read-out: LTC DC50
T1 construct: expressed in transfected cells; host or cells: BaF3
T1 sequence (P00533 25-1210 T790M/C797S/L858R): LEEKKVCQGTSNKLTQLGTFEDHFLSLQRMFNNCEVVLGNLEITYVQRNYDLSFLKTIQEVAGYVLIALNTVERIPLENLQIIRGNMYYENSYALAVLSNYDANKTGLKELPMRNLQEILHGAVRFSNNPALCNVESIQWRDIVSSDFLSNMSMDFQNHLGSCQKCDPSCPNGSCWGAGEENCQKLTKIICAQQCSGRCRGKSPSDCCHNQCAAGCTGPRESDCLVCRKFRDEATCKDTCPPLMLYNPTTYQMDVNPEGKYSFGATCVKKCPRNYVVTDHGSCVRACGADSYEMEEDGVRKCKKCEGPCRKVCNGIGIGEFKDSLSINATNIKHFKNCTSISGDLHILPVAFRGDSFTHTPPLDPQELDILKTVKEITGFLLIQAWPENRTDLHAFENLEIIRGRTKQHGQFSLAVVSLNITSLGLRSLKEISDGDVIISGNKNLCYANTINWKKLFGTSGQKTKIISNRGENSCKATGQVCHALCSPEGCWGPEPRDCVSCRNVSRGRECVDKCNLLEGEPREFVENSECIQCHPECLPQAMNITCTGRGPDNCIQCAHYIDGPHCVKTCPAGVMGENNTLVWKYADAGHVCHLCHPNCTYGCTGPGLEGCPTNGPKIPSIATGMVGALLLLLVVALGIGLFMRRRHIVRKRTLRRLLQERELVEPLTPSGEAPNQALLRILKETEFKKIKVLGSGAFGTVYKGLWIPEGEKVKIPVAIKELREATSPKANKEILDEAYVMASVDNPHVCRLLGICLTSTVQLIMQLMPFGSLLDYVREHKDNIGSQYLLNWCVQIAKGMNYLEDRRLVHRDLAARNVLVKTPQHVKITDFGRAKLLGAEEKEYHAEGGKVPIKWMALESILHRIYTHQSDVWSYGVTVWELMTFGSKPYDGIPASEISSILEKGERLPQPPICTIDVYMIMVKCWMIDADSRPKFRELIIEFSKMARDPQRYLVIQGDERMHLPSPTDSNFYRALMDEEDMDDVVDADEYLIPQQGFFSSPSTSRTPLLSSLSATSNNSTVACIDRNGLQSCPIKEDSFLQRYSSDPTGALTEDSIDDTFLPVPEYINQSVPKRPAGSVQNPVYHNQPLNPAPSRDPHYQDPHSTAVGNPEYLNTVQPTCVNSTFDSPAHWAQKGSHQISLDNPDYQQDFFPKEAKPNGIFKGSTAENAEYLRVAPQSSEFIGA
Summary of the method: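 Cells treated 16 h at 37 °C, 5% CO2 in medium with 0.2% DMSO; top final concentration 10 uM, 5-fold dilution, 8 doses. Lysates read by HTRF (665/620 nm); degradation % versus DMSO high control, DC50 from four-parameter fit, Dmax as maximal degradation.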

[3] = 16h treatment, read-out: DTC DC50

SMILES	DTC Dmax (%) ([1]; 16h treatment)	DC50 [1, 3] [nM]	Dmax [2] [%]	DC50 [2] [nM]	DC50 ([1]; read-out: DTC DC50, 16h treatment) [nM]
CCc1cc(Nc2ncc(Br)c(Nc3ccc4nc(C)ccc4c3P(C)(C)=O)n2)c(OC)cc1N1CCC(N2CCN(C(=O)CNc3cc(F)c(C4CCC(=O)NC4=O)c(F)c3)CC2)CC1 (centres unmarked) [Example 432, 3-(4-((2-(4-(1-(4-((5-bromo-4-((5-(dimethylphosphoryl)-2-methylquinolin-6-yl)amino)pyrimidin-2-yl)amino)-2-ethyl-5-methoxyphenyl)piperidin-4-yl)piperazin-1-yl)-2-oxoethyl)amino)-2,6-difluorophenyl)piperidine-2,6-dione]	94.91	1.19	93	4.24	
CCc1cc(Nc2ncc(Br)c(Nc3ccc4nc(C)ccc4c3P(C)(C)=O)n2)c(OC)cc1N1CCC(N2CCN(CCN(C)c3cc(F)c(C4CCC(=O)NC4=O)c(F)c3)CC2)CC1 (centres unmarked) [Example 433, 3-(4-((2-(4-(1-(4-((5-bromo-4-((5-(dimethylphosphoryl)-2-methylquinolin-6-yl)amino)pyrimidin-2-yl)amino)-2-ethyl-5-methoxyphenyl)piperidin-4-yl)piperazin-1-yl)ethyl)(methyl)amino)-2,6-difluorophenyl)piperidine-2,6-dione]	93.56	4.29	90.8	9.35	
CCc1cc(Nc2ncc(Br)c(Nc3ccc4nc(C(F)(F)F)ccc4c3P(C)(C)=O)n2)c(OC)cc1N1CCC(N2CCN(C(=O)C3CN(c4ccc5c(c4)CN(C4CCC(=O)NC4=O)C5=O)C3)CC2)CC1 (centres unmarked) [Example 434, 3-(5-(3-(4-(1-(4-((5-bromo-4-((5-(dimethylphosphoryl)-2-(trifluoromethyl)quinolin-6-yl)amino)pyrimidin-2-yl)amino)-2-ethyl-5-methoxyphenyl)piperidin-4-yl)piperazine-1-carbonyl)azetidin-1-yl)-1-oxoisoindolin-2-yl)piperidine-2,6-dione]	85.05	4.43	88.2	9.32	
CCc1cc(Nc2ncc(Br)c(Nc3ccc4nc(C(F)(F)F)ccc4c3P(C)(C)=O)n2)c(OC)cc1N1CCC(N2CCN(CCc3cc(F)c(C4CCC(=O)NC4=O)c(F)c3)CC2)CC1 (centres unmarked) [Example 435, 3-(4-(2-(4-(1-(4-((5-bromo-4-((5-(dimethylphosphoryl)-2-(trifluoromethyl)quinolin-6-yl)amino)pyrimidin-2-yl)amino)-2-ethyl-5-methoxyphenyl)piperidin-4-yl)piperazin-1-yl)ethyl)-2,6-difluorophenyl)piperidine-2,6-dione]	92.59	7.48	89.9	23.9	
CCc1cc(Nc2ncc(Br)c(Nc3ccc4nc(C)ccc4c3P(C)(C)=O)n2)c(OC)cc1N1CCC(N2CCN(C(=O)C3CCN(c4ccc5c(c4)C(C)(C)C(=O)N5C4CCC(=O)NC4=O)CC3)CC2)CC1 (centres unmarked) [Example 436, 3-(5-(4-(4-(1-(4-((5-bromo-4-((5-(dimethylphosphoryl)-2-methylquinolin-6-yl)amino)pyrimidin-2-yl)amino)-2-ethyl-5-methoxyphenyl)piperidin-4-yl)piperazine-1-carbonyl)piperidin-1-yl)-3,3-dimethyl-2-oxoindolin-1-yl)piperidine-2,6-dione]	89.14		92.5	3.2	2.38
CCc1cc(Nc2ncc(Br)c(Nc3ccc4nc(C(F)(F)F)ccc4c3P(C)(C)=O)n2)c(OC)cc1N1CCC(N2CCN(CCC3CCN(c4cc(F)c(C5CCC(=O)NC5=O)c(F)c4)CC3)CC2)CC1 (centres unmarked) [Example 437, 3-(4-(4-(2-(4-(1-(4-((5-bromo-4-((5-(dimethylphosphoryl)-2-(trifluoromethyl)quinolin-6-yl)amino)pyrimidin-2-yl)amino)-2-ethyl-5-methoxyphenyl)piperidin-4-yl)piperazin-1-yl)ethyl)piperidin-1-yl)-2,6-difluorophenyl)piperdine-2,6-dione]	83.88	14.9	91.2	28	
CCc1cc(Nc2ncc(Br)c(Nc3ccc4ncn(C)c(=O)c4c3P(C)(C)=O)n2)c(OC)cc1N1CCC(N2CCN(CCc3cccc4c3n(C)c(=O)n4C3CCC(=O)NC3=O)CC2)CC1 (centres unmarked) [Example 698, 3-(4-(2-(4-(1-(4-((5-bromo-4-((5-(dimethylphosphoryl)-3-methyl-4-oxo-3,4-dihydroquinazolin-6-yl)amino)pyrimidin-2-yl)amino)-2-ethyl-5-methoxyphenyl)piperidin-4-yl)piperazin-1-yl)ethyl)-3-methyl-2-oxo-2,3-dihydro-1H-benzo[d]imidazol-1-yl)piperidine-2,6-dione]	94.26	0.601	93.6	4.28	
CCc1cc(Nc2ncc(Br)c(Nc3ccc4nc(C)ccc4c3P(C)(C)=O)n2)c(OC)cc1N1CCC(N2CCN(C(=O)C34CCC(Nc5cc(F)c(C6CCC(=O)NC6=O)c(F)c5)(CC3)C4)CC2)CC1 (centres unmarked) [Example 699, 3-(4-((4-(4-(1-(4-((5-bromo-4-((5-(dimethylphosphoryl)-2-methylquinolin-6-yl)amino)pyrimidin-2-yl)amino)-2-ethyl-5-methoxyphenyl)piperidin-4-yl)piperazine-1-carbonyl)bicyclo[2.2.1]heptan-1-yl)amino)-2,6-difluorophenyl)piperidine-2,6-dione]	85.08	3.04	89.2	6.06	
CCc1cc(Nc2ncc(Br)c(Nc3ccc4nc(C)ccc4c3P(C)(C)=O)n2)c(OC)cc1N1CCC(N2CCC(C(=O)N3CCC(c4cc(F)c(C5CCC(=O)NC5=O)c(F)c4)CC3)CC2)CC1 (centres unmarked) [Example 700, 3-(4-(1-(1′-(4-((5-bromo-4-((5-(dimethylphosphoryl)-2-methylquinolin-6-yl)amino)pyrimidin-2-yl)amino)-2-ethyl-5-methoxyphenyl)-[1,4′-bipiperidine]-4-carbonyl)piperidin-4-yl)-2,6-difluorophenyl)piperidine-2,6-dione]	83.8	6.49	92.4	13.1	
CCc1cc(Nc2ncc(Br)c(Nc3ccc4ncn(C)c(=O)c4c3P(C)(C)=O)n2)c(OC)cc1N1CCC(N2CCN(C(=O)C3CCN(c4cc(F)c(C5CCC(=O)NC5=O)c(F)c4)C3)CC2)CC1 (centres unmarked) [Example 701, 3-(4-(3-(4-(1-(4-((5-bromo-4-((5-(dimethylphosphoryl)-3-methyl-4-oxo-3,4-dihydroquinazolin-6-yl)amino)pyrimidin-2-yl)amino)-2-ethyl-5-methoxyphenyl)piperidin-4-yl)piperazine-1-carbonyl)pyrrolidin-1-yl)-2,6-difluorophenyl)piperidine-2,6-dione]	90.24	2.23	92.7	9.87	
CCc1cc(Nc2ncc(C(C)=O)c(Nc3ccc4nccnc4c3P(C)(C)=O)n2)c(OC)cc1N1CCC(N2CCN(CCC3CCN(c4cc(F)c(C5CCC(=O)NC5=O)c(F)c4)CC3)CC2)CC1 (centres unmarked) [Example 703, 3-(4-(4-(2-(4-(1-(4-((5-acetyl-4-((5-(dimethylphosphoryl)quinoxalin-6-yl)amino)pyrimidin-2-yl)amino)-2-ethyl-5-methoxyphenyl)piperidin-4-yl)piperazin-1-yl)ethyl)piperidin-1-yl)-2,6-difluorophenyl)piperidine-2,6-dione]	93.35	6.81	87.8	20	
CCc1cc(Nc2ncc(Br)c(Nc3ccc4nc(C)ccc4c3P(C)(C)=O)n2)c(OC)cc1N1CCC(N2CCN(CCCOc3cc(F)c(C4CCC(=O)NC4=O)c(F)c3)CC2)CC1 (centres unmarked) [Example 704, 3-(4-(3-(4-(1-(4-((5-bromo-4-((5-(dimethylphosphoryl)-2-methylquinolin-6-yl)amino)pyrimidin-2-yl)amino)-2-ethyl-5-methoxyphenyl)piperidin-4-yl)piperazin-1-yl)propoxy)-2,6-difluorophenyl)piperidine-2,6-dione]	82.31	3.98	90.4	21.9	
CCc1cc(Nc2ncc(Br)c(Nc3ccc4c(=O)n(C)ccc4c3P(C)(C)=O)n2)c(OC)cc1N1CCC(N2CCN(CCc3cccc4c3n(C)c(=O)n4C3CCC(=O)NC3=O)CC2)CC1 (centres unmarked) [Example 705, 3-(4-(2-(4-(1-(4-((5-bromo-4-((5-(dimethylphosphoryl)-2-methyl-1-oxo-1,2-dihydroisoquinolin-6-yl)amino)pyrimidin-2-yl)amino)-2-ethyl-5-methoxyphenyl)piperidin-4-yl)piperazin-1-yl)ethyl)-3-methyl-2-oxo-2,3-dihydro-1H-benzo[d]imidazol-1-yl)piperidine-2,6-dione]	88.58	1.53	95.3	4.56	
CCc1cc(Nc2ncc(Br)c(Nc3ccc4nc(C)ccc4c3P(C)(C)=O)n2)c(OC)cc1N1CCC(N2CCN(C(=O)C(C)(C)CNc3cc(F)c(C4CCC(=O)NC4=O)c(F)c3)CC2)CC1 (centres unmarked) [Example 706, 3-(4-((3-(4-(1-(4-((5-bromo-4-((5-(dimethylphosphoryl)-2-methylquinolin-6-yl)amino)pyrimidin-2-yl)amino)-2-ethyl-5-methoxyphenyl)piperidin-4-yl)piperazin-1-yl)-2,2-dimethyl-3-oxopropyl)amino)-2,6-difluorophenyl)piperidine-2,6-dione]	88.51	2.17	90.8	5.64	
